In patent US20240199552A1, “AMIDE COMPOUND AND USE THEREOF” (Metisa Biotechnology Co., Ltd, priority 2021, published 2024):
Where two headings read alike, the source gives them in different places.

How the values were obtained:
Assay type in all cases: in vivo
[1] = tested on: Mythimna separata; experiment: Insecticidal activity against Mythimna separata, Airbrush spray on maize leaf pieces; conditions: 72 h, 0.05 mg/L, 3 days after the administration, 3rd-instar larvae, read-out: mortality rate against Mythimna separata
Method: (§1) After the compound to be determined was dissolved in a mixed solvent of acetone/methanol (1:1), it was diluted with water containing 0.1% (wt) Tween-80 to a desired concentration.
(§2) Mythimna separata, Diamondback moth, Chilo suppressalis, Spodoptera exigua, Myzus persicae, and Franklinella occidentalis were used as targets, and the activity was tested by an Airbrush spray method.
Determination method: maize leaves were cut into 2 cm leaf pieces, and the front and back of each leaf piece were sprayed under an Airbrush spray treatment pressure of 10 psi (approximate to 0.7 kg/cm^2) and with a spray volume of 0.5 mL. After drying in the shade, 10 3rd-instar larvae were inoculated for each treatment, and each treatment was repeated for 3 times. After the treatment, the leaf pieces were put into an observation chamber at 25° C. and with a relative humidity of 60% to 70%, and the number of living larvae was investigated 3 days after the administration of the compounds, and the mortality rates were calculated.

[2] = tested on: Diamondback moth; experiment: Insecticidal activity against Diamondback moth, Airbrush spray on cabbage leaf discs; conditions: Plutella xylostella, foliar, 72 h; for mortality at 10 µg/mL: 10 mg/L, read-out: Mortality rate (%, 3 days after the administration) 10 mg/L; for mortality at 0.156 µg/mL: read-out: Mortality rate (%, 3 days after the administration) 0.156 mg/L; for mortality at 0.313 µg/mL: read-out: Mortality rate (%, 3 days after the administration) 0.313 mg/L
Method: as §1, §2
Determination method: cabbage leaves were formed into leaf discs having a diameter of 2 cm using a puncher, and the front and back of each leaf disc were sprayed under an Airbrush spray treatment pressure of 10 psi (approximate to 0.7 kg/cm^2) and with a spray volume of 0.5 mL. After drying in the shade, 10 3rd-instar larvae were inoculated for each treatment, and each treatment was repeated for 3 times. After the treatment, the leaf discs were placed into an observation chamber at 25° C. and with a relative humidity of 60% to 70%, and the number of living larvae was investigated 3 days after the administration of the compounds, and the mortality rates were calculated.

[3] = tested on: Chilo suppressalis; experiment: Insecticidal activity against Chilo suppressalis, sprayed rice stems; conditions: 72 h, 0.625 mg/L, 3 days after the administration, 3rd-instar larvae, read-out: mortality rate against Chilo suppressalis
Method: as §1, §2
Determination method: 1) Preparation of rice seedlings: rice was cultured in a plastic small cup with a diameter of 4.5 cm and a height of 4 cm in a constant temperature room (the temperature was 26-28° C., the relative humidity was about 60-80%, and the illumination was 16hL:8hD), when the rice grown to a 4-5 leaf stage, robust and uniformly grown rice seedlings were selected for pharmaceutical treatment, and 3 replicates were set for each treatment. 2) Preparation of test insects: 3rd-instar larvae of Chilo suppressalis were continuously reared indoors. 3) Rice stems were sprayed and insects were introduced. A spray method was used to treat whole rice seedlings with uniform spray, and each treatment was 15 mL. Blank controls were treated firstly, and then the above operation was repeated in an order of experimental concentrations from low to high. After the spray treatment of the rice seedlings, they were placed in the shade to air-dry drug liquid, about 5 cm of the stem from a basal part of the stem was cut and fed to the test insects. A glass culture dish with a diameter of 90 mm was prepared, filter paper was placed on the bottom of the dish, then water was added to moisturize. About 5 rice stems were placed in each dish, 10 larvae were introduced, and the culture dish was closed with non-woven fabric and placed in the constant-temperature room for culture. 3 days after the administration, the number of residual live insects was investigated.

[4] = tested on: Spodoptera exigua; experiment: Insecticidal activity against Spodoptera exigua, leaf disc dipping feeding method; conditions: foliar, 72 h, 0.625 mg/L, 3 days after the administration, read-out: mortality rate against Spodoptera exigua
Method: After the compound to be determined was dissolved in a mixed solvent of acetone/methanol (1:1), it was diluted with water containing 0.1% (wt) Tween-80 to a desired concentration. […]
Determination method: the activity was tested by using a leaf disc dipping feeding method. Leaf discs were dipped in a drug solution for 10 s, and placed in a culture dish after being air-dried, there were 4 discs in each dish, and a filter paper was placed in the culture dish for moisture retention. 10 test insects of Spodoptera exigua were introduced to each dish, with 3 replicates.
They were placed in a light incubator for culture at a temperature of 25° C. and an illumination of 14hL:10hD. On the 1st, 2nd, and 3rd day after the administration, the number of dead Spodoptera exigua was investigated and the mortality rate was calculated.

[5] = tested on: Myzus persicae; experiment: Insecticidal activity against Myzus persicae, Airbrush spray on cabbage leaves; conditions: 50 mg/L, after 48 h, read-out: mortality rate against Myzus persicae
Method: as §1, §2
Determination method: a culture dish with a diameter of 6 cm was taken, the bottom of the dish was covered by a layer of filter paper, and an appropriate amount of tap water was added to moisturize the paper. Cabbage leaves with an appropriate size (the diameter was about 3 cm) and 15-30 aphids grown were cut from cabbage plants used to culture Myzus persicae, winged aphids and aphids on the front of the leave were removed, and it was placed in the culture dish while the back of the leave was upward. The pressure of airbrush spray treatment was 10 psi (about 0.7 kg/cm^2), the liquid spray volume was 0.5 mL, and there were 3 replicates for each treatment. After the treatment, the leave was put into an observation room for culture at 25° C. and a relative humidity of 60-70%. After 48 h, the number of live insects was investigated and the mortality rate was calculated.

[6] = tested on: cat flea; experiment: Insecticidal experiment on cat flea, thin film in culture dish; conditions: Ctenocephalides felis, 72 h, read-out: mortality rate, cat flea
Method: 4 mg of the compound to be determined was dissolved in 40 mL of acetone to obtain an acetone solution with a concentration of 100 mg/L. 400 μL of the drug solution was applied on the bottom and sides of a culture dish with an inner diameter of 5.3 cm, then after acetone was evaporated, a thin film of the compound of the present invention was made on the inner wall of the culture dish. The inner wall of the culture dish used was 40 cm^2, and the treatment dosage was 1 μg/cm^2. 10 adult cat fleas (mixed male and female) were put into the dish, and it was stored in a constant-temperature room at 25° C. after being covered. The number of dead insects after 72 h was checked and the mortality rate was calculated. The experiment was repeated for 3 times.

[7] = tested on: Franklinella occidentalis; experiment: Insecticidal activity against Franklinella occidentalis nymphs, sprayed bean leaves
Method: as §1, §2
Determination method: fresh bean leaves cultivated in a greenhouse were selected, a hand-held Airbrush sprayer was used to spray uniformly, each treatment was 1 mL, and after being air-dried naturally, the leaves were placed in a finger-shaped tube. Neat and healthy Franklinella occidentalis nymphs were introduced, there were 15 nymphs for each treatment, 3 replicates were set for the experiment, and water treatment was set as a blank control. After the treatment, the leaves were put into an indoor culture room for culture at 24° C., a relative humidity of 60-70%, and natural light. After 72 h, the number of live insects was investigated and the mortality rate was calculated.

[8] = 3 days after the administration, Diamondback moth
[9] = 0.156 mg/L, 3 days after the administration, Diamondback moth
[10] = 0.313 mg/L, 3 days after the administration, Diamondback moth

With `C=CCN(C(=O)c1ccc(C#N)cc1)c1cccc(C(=O)Nc2c(I)cc(C(F)(C(F)(F)F)C(F)(F)F)cc2C(F)(F)F)c1F` [Compound 12] the mortality at 0.05 µg/mL [1] was greater than 90%, the mortality at 1.25 µg/mL ([2]; 1.25 mg/L, 3 days after the administration, 3rd-instar larvae, read-out: mortality rate against Diamondback moth) was greater than 90% and the mortality at 10 µg/mL [2, 8] was 100%. The mortality at 0.625 µg/mL [3] was greater than 90%, the mortality at 0.625 µg/mL [4] was greater than 90% and the mortality at 50 µg/mL [5] was greater than 90%. The mortality at 1 µg/cm2 [6] was greater than 90%.

In the case of `CN(C(=O)c1ccc(F)nc1)c1cccc(C(=O)Nc2c(Br)cc(C(F)(C(F)(F)F)C(F)(F)F)cc2C(F)(F)F)c1F` [KC7, reference compound], the mortality at 0.156 µg/mL [2, 9] is reported as 56.7%, the mortality at 0.313 µg/mL [2, 10] is reported as 100% and the “Mortality rate (%, 3 days after the administration) 10 mg/L” value [7] is reported as 53.33%. For the same compound, the “Mortality rate (%, 3 days after the administration) 100 mg/L” value [7] was 80.00%.

With `CN(C(=O)c1ccc(F)nc1)c1cccc(C(=O)Nc2c(I)cc(C(F)(C(F)(F)F)C(F)(F)F)cc2C(F)(F)F)c1F` [KC8, reference compound] the mortality at 0.156 µg/mL [2, 9] was 53.3%, the mortality at 0.313 µg/mL [2, 10] was 86.7% and the “Mortality rate (%, 3 days after the administration) 10 mg/L” value [7] was 53.33%. The “Mortality rate (%, 3 days after the administration) 100 mg/L” value [7] was 82.22%.

`C=CCN(C(=O)c1ccccc1)c1cccc(C(=O)Nc2c(C)cc(C(F)(C(F)(F)F)C(F)(F)F)cc2C)c1F` [KC9, reference compound] gave a mortality at 10 µg/mL [2, 8] of 100%.

`CN(C(=O)c1ccc(F)cc1)c1cccc(C(=O)Nc2c(Br)cc(C(F)(C(F)(F)F)C(F)(F)F)cc2C(F)(F)F)c1F` [KC4, reference compound] was tested, and the mortality at 0.156 µg/mL [2, 9] was 60%, the mortality at 0.313 µg/mL [2, 10] was 100% and the “Mortality rate (%, 3 days after the administration) 10 mg/L” value [7] was 40.00%. The “Mortality rate (%, 3 days after the administration) 100 mg/L” value [7] was 62.22%.

Compound `C#CCN(C(=O)c1ccccc1)c1cccc(C(=O)Nc2c(C)cc(C(F)(C(F)(F)F)C(F)(F)F)cc2C)c1F` [KC10, reference compound] has a mortality at 10 µg/mL [2, 8] of 100%.

In the case of `O=C(Nc1cccc(C(=O)Nc2c(I)cc(C(F)(C(F)(F)F)C(F)(F)F)cc2C(F)(F)F)c1F)c1ccc(F)nc1` [KC6, reference compound], the mortality at 0.156 µg/mL [2] is reported as 46.7%, the mortality at 0.313 µg/mL [2] is reported as 90% and the “Mortality rate (%, 3 days after the administration) 10 mg/L” value [7] is reported as 57.78%. The “Mortality rate (%, 3 days after the administration) 100 mg/L” value [7] was 77.78%.

Work on `C#CCN(C(=O)c1ccccc1)c1cccc(C(=O)Nc2c(C)cc(C(F)(C(F)(F)F)C(F)(F)F)cc2C)c1` [KC2, reference compound] yielded a mortality at 10 µg/mL [2, 8] of 0%.

In the case of `CN(C(=O)c1ccc(F)cc1)c1cccc(C(=O)Nc2c(I)cc(C(F)(C(F)(F)F)C(F)(F)F)cc2C(F)(F)F)c1F` [KC5, reference compound], the mortality at 0.156 µg/mL [2, 9] is reported as 73.3%, the mortality at 0.313 µg/mL [2, 10] is reported as 100% and the “Mortality rate (%, 3 days after the administration) 10 mg/L” value [7] is reported as 28.89%. For the same compound, the “Mortality rate (%, 3 days after the administration) 100 mg/L” value [7] was 51.11%.
